Source: patent US20260365670A1, “EGFR INHIBITORS AND USES THEREOF” (DIZAL (JIANGSU) PHARMACEUTICAL CO., LTD., priority 2022, published 2026)
Where two headings read alike, the source gives them in different places.

Legend:
[1] = system: A-431; test: Cell proliferation assay, A-431 cells (GI50, Table 6); type: cell-based; conditions: Homo sapiens, A-431, A-431 cells
[2] = target: T1, EGFR Exon19Del/T790M (Homo sapiens, UniProt P00533, DEL746-750/T790M); test: Inhibition of EGFR Exon19Del/T790M biochemical enzymatic activity (HTRF); conditions: EGFR Del19-T790M, 1 mM ATP, 1 h, room temperature, read-out: IC50 (nM) @Del19-T790M
T1 construct: purchased Carna Bio
T1 sequence (P00533 with tags, fused parts or gaps DEL746-750/T790M limits assumed): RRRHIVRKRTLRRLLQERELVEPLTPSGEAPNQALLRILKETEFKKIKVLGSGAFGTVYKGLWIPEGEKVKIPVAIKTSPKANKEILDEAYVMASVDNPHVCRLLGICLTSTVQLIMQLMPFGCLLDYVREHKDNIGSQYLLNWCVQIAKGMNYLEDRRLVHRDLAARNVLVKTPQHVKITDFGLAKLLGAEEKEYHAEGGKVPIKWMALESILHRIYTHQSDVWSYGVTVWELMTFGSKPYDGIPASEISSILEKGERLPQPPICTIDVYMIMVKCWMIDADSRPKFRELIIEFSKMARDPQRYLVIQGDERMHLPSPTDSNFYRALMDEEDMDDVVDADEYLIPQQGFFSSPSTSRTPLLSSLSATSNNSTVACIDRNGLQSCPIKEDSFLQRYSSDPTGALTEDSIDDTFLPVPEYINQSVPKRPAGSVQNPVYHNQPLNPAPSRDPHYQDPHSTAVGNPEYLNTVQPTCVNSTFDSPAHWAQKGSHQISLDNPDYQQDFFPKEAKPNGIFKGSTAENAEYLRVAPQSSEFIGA
Procedure, shortened: (§1)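 In a buffer with 5 mM MgCl2, 1 mM MnCl2, 1 mM DTT and 0.01% CHAPS, enzyme turnover of 1 μM biotinylated TK substrate at 1 mM ATP is followed by HTRF after 1 h at room temperature. IC50 is obtained by a four-parameter fit.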

[3] = target: T2, EGFR wild type (Homo sapiens, UniProt P00533); test: Inhibition of EGFR wild type biochemical enzymatic activity (HTRF); conditions: EGFR WT, 1 mM ATP, 1 h, room temperature, read-out: IC50 (nM) @WT
T2 construct: purchased Carna Bio
T2 sequence (P00533 25-1210): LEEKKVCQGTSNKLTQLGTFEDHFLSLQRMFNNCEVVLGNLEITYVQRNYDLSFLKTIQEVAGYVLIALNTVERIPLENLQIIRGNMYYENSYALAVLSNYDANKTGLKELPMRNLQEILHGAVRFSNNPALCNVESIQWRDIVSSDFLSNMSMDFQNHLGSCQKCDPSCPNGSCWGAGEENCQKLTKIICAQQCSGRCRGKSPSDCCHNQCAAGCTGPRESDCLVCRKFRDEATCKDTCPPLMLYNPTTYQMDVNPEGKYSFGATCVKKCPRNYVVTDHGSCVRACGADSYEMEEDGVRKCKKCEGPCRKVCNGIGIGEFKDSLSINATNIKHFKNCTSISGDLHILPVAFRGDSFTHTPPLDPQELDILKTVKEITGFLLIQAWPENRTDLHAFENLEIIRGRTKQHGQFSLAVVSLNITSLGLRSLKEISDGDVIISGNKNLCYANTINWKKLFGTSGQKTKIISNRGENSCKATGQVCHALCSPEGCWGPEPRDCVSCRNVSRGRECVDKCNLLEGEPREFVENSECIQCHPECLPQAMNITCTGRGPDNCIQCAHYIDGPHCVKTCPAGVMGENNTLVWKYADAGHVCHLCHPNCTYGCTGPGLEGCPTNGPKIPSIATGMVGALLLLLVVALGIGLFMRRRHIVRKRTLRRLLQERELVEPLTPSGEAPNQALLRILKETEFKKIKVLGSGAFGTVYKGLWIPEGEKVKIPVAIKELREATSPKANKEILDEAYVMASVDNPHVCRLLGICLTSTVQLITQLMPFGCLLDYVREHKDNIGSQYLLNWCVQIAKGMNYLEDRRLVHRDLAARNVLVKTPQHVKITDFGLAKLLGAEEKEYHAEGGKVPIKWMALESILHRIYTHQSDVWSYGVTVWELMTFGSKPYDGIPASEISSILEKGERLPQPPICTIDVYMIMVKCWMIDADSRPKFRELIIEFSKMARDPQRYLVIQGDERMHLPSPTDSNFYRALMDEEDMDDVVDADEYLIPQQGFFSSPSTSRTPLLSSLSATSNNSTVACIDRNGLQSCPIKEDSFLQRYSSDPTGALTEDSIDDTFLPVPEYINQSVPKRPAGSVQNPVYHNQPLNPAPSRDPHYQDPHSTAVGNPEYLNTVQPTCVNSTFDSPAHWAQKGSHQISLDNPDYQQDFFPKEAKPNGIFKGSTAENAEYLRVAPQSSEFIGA
Procedure, shortened: as §1

[4] = target: T3, EGFR[T790M/C797S/d746-750] (Homo sapiens, UniProt P00533, C797S/DEL746-750/T790M); test: Inhibition of EGFR[T790M/C797S/d746-750] biochemical enzymatic activity (HTRF); conditions: EGFR T790M-C797S-Del19, 1 mM ATP, 1 h, room temperature, read-out: IC50 (nM) @T790M - C797S - Del19
T3 construct: purchased Carna Bio
Procedure, shortened: as §1

[5] = target: T4, EGFR L858R/T790M (Homo sapiens, UniProt P00533, L858R/T790M); test: Inhibition of EGFR L858R/T790M biochemical enzymatic activity (HTRF); conditions: EGFR L858R-T790M, 1 mM ATP, 1 h, room temperature, read-out: IC50 (nM) @L858R-T790M
T4 construct: purchased Carna Bio
Procedure, shortened: as §1

[6] = target: T5, EGFR (d746-750 C797S) (Homo sapiens, UniProt P00533, C797S/DEL746-750); test: Inhibition of EGFR (d746-750 C797S) biochemical enzymatic activity (HTRF); conditions: EGFR Del19-C797S, 1 mM ATP, 1 h, room temperature, read-out: IC50 (nM) @Del19-C797S
T5 construct: purchased signalchem
Procedure, shortened: as §1

[7] = target: T6, EGFR[T790M/C797S/L858R] (Homo sapiens, UniProt P00533, C797S/L858R/T790M); test: Inhibition of EGFR[T790M/C797S/L858R] biochemical enzymatic activity (HTRF); conditions: EGFR T790M-C797S-L858R, 1 mM ATP, 1 h, room temperature, read-out: IC50 (nM) @T790M- C797S - L858R
T6 construct: purchased Carna Bio
Procedure, shortened: as §1

[8] = target: T7, EGFR (C797S L858R) (Homo sapiens, UniProt P00533, C797S/L858R); test: Inhibition of EGFR (C797S L858R) biochemical enzymatic activity (HTRF); conditions: EGFR L858-C797S, 1 mM ATP, 1 h, room temperature, read-out: IC50 (nM) @L858-C797S
T7 construct: purchased signalchem
T7 sequence (P00533 25-1210 C797S/L858R): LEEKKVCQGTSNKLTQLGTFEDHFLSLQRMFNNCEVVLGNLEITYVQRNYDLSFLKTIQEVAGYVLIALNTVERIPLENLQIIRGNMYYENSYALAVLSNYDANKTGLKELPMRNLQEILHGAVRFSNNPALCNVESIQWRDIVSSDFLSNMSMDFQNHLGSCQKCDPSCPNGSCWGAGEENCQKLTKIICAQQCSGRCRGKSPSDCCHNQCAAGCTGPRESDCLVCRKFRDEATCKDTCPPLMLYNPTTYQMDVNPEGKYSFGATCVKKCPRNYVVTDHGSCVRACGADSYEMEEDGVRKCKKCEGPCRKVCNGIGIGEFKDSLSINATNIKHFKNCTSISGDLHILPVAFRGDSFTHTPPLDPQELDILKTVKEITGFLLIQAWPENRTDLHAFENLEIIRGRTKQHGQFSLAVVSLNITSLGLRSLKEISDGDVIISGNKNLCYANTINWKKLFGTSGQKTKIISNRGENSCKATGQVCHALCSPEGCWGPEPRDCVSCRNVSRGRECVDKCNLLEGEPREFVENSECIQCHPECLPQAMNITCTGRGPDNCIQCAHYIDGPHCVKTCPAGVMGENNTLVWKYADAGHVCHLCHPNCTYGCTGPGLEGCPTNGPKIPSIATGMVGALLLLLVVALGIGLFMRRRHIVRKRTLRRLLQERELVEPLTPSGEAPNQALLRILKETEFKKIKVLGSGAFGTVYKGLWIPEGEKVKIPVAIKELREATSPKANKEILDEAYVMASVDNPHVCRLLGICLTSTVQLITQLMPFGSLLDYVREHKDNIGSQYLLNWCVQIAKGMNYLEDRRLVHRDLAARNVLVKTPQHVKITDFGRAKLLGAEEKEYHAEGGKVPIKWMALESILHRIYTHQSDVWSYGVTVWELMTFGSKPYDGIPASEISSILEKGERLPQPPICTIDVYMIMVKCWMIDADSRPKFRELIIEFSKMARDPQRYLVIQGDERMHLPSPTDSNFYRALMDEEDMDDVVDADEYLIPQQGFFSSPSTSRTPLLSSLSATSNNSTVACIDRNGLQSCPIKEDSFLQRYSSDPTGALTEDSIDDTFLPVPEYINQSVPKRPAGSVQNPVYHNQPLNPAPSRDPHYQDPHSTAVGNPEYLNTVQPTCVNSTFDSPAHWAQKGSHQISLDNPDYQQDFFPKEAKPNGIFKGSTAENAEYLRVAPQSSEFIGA
Procedure, shortened: as §1

[9] = target: T8, EGFR Exon19Del (Homo sapiens, UniProt P00533, DEL746-750); test: Inhibition of EGFR Exon19Del biochemical enzymatic activity (HTRF); conditions: EGFR Del19, 1 mM ATP, 1 h, room temperature, read-out: IC50 @Del19
T8 construct: purchased Carna Bio
T8 sequence (P00533 with tags, fused parts or gaps DEL746-750 limits assumed): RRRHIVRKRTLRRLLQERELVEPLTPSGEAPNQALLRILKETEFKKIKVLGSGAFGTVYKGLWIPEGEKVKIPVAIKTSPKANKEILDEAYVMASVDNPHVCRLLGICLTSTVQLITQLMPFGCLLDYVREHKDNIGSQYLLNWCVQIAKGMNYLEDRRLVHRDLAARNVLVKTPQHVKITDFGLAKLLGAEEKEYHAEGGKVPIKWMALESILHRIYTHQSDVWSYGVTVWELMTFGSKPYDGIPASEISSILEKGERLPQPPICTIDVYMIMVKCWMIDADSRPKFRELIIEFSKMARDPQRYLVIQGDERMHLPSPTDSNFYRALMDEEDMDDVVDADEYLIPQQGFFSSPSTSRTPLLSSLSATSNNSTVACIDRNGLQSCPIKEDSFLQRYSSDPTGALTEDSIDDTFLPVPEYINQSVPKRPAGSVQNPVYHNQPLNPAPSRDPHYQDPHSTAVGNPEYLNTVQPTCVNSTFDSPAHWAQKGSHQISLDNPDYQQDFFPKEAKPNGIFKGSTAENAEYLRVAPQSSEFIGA
Procedure, shortened: as §1

[10] = system: PC-9; test: Cell proliferation assay, PC-9 cells (CellTiter-Glo, 72 hours); type: cell-based; conditions: Homo sapiens, PC-9, 72 h, PC9 cells, read-out: GI50 PC9
Procedure, shortened: (§2)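 Luminescent viable-cell counts were taken on a day 0 plate at dosing and again at endpoint. Proliferation was calculated as (sample − G0)/(DMSO − G0). Seeding was 5000 Ba/F3 or 500 PC-9 cells per well in RPMI1640, followed by overnight attachment and serial compound dilutions. The GI50 was fitted.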

[11] = system: Ba/F3 cells expressing EGFR mutations; test: Cell proliferation assay, Ba/F3 cells expressing EGFR mutations (CellTiter-Glo, 72 hours); type: cell-based; conditions: Mus musculus, BaF3, 72 h
Procedure, shortened: as §2

[12] = target: T9, EGFR L858R (Homo sapiens, UniProt P00533, L858R); test: Inhibition of EGFR L858R biochemical enzymatic activity (HTRF); conditions: 1 mM ATP, 1 h, room temperature, read-out: IC50 (nM) @L858R
T9 construct: purchased Carna Bio
T9 sequence (P00533 25-1210 L858R): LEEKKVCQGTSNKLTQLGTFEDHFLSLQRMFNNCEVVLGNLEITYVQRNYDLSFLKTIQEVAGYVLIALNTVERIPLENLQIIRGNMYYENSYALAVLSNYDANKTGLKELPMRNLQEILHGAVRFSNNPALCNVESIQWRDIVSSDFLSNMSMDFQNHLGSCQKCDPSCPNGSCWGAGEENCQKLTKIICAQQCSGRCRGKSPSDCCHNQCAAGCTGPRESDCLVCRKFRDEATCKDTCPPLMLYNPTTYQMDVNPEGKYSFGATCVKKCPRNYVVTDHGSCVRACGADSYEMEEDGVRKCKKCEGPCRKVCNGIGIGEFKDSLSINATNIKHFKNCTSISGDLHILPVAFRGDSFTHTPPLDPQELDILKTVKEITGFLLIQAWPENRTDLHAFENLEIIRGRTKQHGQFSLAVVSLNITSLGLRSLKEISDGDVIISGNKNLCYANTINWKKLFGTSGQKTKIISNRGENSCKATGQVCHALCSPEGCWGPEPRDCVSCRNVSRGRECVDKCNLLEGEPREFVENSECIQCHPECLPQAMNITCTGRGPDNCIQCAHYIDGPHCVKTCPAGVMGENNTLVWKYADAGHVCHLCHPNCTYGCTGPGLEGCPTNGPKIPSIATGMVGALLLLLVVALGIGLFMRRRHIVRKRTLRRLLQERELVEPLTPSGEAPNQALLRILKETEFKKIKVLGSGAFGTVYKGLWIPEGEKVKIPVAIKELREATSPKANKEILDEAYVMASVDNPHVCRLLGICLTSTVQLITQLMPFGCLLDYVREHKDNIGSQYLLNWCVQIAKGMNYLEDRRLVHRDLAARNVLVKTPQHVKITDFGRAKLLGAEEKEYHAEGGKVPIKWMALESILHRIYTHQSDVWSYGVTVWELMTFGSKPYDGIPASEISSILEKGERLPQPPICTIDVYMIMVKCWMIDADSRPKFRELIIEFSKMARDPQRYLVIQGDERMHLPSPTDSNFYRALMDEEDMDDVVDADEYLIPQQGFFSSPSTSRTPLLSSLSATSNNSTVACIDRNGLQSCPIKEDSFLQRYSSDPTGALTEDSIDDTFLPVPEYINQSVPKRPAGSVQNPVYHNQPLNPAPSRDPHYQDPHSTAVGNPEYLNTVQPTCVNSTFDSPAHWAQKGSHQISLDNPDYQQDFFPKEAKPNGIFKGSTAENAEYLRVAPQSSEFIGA
Procedure, shortened: as §1

[13] = BaF3 cells, EGFR DEL19 - C797S, read-out: GI50 DEL19 - C797S/BaF3
[14] = BaF3 cells, EGFR DEL19 - T790-C797S, read-out: GI50 DEL19 - T790-C797S/BaF3
[15] = BaF3 cells, EGFR L858R - C797S, read-out: GI50 L858R - C797S/BaF3
[16] = BaF3 cells, EGFR L858R - T790-C797S, read-out: GI50 L858R - T790-C797S/BaF3
[17] = BaF3 cells, EGFR L858R - T790M, read-out: GI50 L858R - T790M/BaF3
[18] = BaF3 cells, EGFR L858R, read-out: GI50 L858R/BaF3
[19] = EGFR DEL19 - T790M, read-out: GI50 DEL19 - T790M

For CN1CCN(c2ccc3nc4n(c3c2)C(C)(C)CCCCOc2c(cnn2C)-c2cc(cn(C)c2=O)C(=O)N4)CC1 [Example A112, 5,12,12,26-Tetramethyl-16-(4-methylpiperazin-1-yl)-7-oxa-4,5,13,20,22,26-hexaazapentacyclo[22.3.1.0^{2,6}.0^{13,21}.0^{14,19}]octacosa-1(28),2(6),3,14,16,18,20,24-octaene-23,27-dione], the GI50 [1] was 3590 nM, the IC50 [2] was 15 nM and the IC50 [3] was greater than 5000 nM. It also gave an IC50 [4] of 12 nM, an IC50 [5] of 133 nM and an IC50 [6] of 6.6 nM. It also gave an IC50 [7] of 52 nM, an IC50 [8] of 60 nM and an IC50 [9] of 8.5 nM. The GI50 [10] was 45 nM, the GI50 [11, 13] was 4.5 nM and the GI50 [11, 14] was 70 nM. The GI50 [11, 15] was 47 nM, the GI50 [11, 16] was 64 nM and the GI50 [11, 17] was 37 nM. For the same molecule, the GI50 [11, 18] was 89 nM, the GI50 [11, 19] was 105 nM and the IC50 [12] was 198 nM.
In the case of Cn1ncc2c1OCCN1CC3CCC(CC3)(C1)n1c(nc3cc(F)c(N4CCOCC4)cc31)NC(=O)c1cc-2c(=O)n(C)c1 [Example A113, 6-Fluoro-15,21-dimethyl-5-(morpholin-4-yl)-23-oxa-2,9,11,15,20,21,26-heptaazaheptacyclo[26.2.2.1^{1,26}.1^{13,17}.0^{2,10}.0^{3,8}.0^{18,22}]tetratriaconta-3,5,7,9,13,17(34),18(22),19-octaene-12,16-dione], the GI50 [1] is reported as 4690 nM, the IC50 [2] is reported as 32 nM and the IC50 [3] is reported as greater than 5000 nM. The IC50 [4] was 45 nM, the IC50 [5] was 230 nM and the IC50 [6] was 1200 nM. It also gave an IC50 [7] of 900 nM, an IC50 [8] of 46 nM and an IC50 [9] of 41 nM. The GI50 [10] was 147 nM, the GI50 [11, 13] was 15 nM and the GI50 [11, 14] was 108 nM. It also gave a GI50 [11, 15] of 172 nM, a GI50 [11, 16] of 230 nM and a GI50 [11, 17] of 255 nM. The GI50 [11, 18] was 121 nM, the GI50 [11, 19] was 63 nM and the IC50 [12] was 439 nM.
Work on Cn1ncc2c1OCCN1CC3CCC(CC3)(C1)n1c(nc3cc(F)ccc31)NC(=O)c1cc-2c(=O)n(C)c1 [Example A116, 6-fluoro-15,21-dimethyl-23-oxa-2,9,11,15,20,21,26-heptaazaheptacyclo[26.2.2.1^{1,26}.1^{13,17}.0^{2,10}.0^{3,8}.0^{18,22}]tetratriaconta-3,5,7,9,13,17(34),18(22),19-octaene-12,16-dione] yielded a GI50 [1] of 3440 nM, an IC50 [2] of 88 nM and an IC50 [3] greater than 5000 nM. For the same molecule, the IC50 [4] was 168 nM, the IC50 [5] was greater than 5000 nM and the IC50 [6] was 474 nM. The IC50 [7] was greater than 5000 nM, the IC50 [8] was 3700 nM and the IC50 [9] was 464 nM. It also gave a GI50 [10] of 256 nM, a GI50 [11, 13] of 56 nM and a GI50 [11, 14] of 336 nM. The GI50 [11, 15] was 194 nM, the GI50 [11, 16] was 162 nM and the GI50 [11, 17] was 720 nM. For the same molecule, the GI50 [11, 18] was 419 nM, the GI50 [11, 19] was 157 nM and the IC50 [12] was greater than 5000 nM.
Work on Cn1ncc2c1OCCN1CC3CCC(C3)(C1)n1c(nc3cc(F)ccc31)NC(=O)c1cc-2c(=O)n(C)c1 (stereo not drawn) [Example A117B, 6-fluoro-15,21-dimethyl-23-oxa-2,9,11,15,20,21,26-heptaazaheptacyclo[24.4.1.1^{1,28}.1^{13,17}.0^{2,10}.0^{3,8}.0^{18,22}]tritriaconta-3,5,7,9,13,17(33),18(22),19-octaene-12,16-dione] yielded a GI50 [1] of 1510 nM, an IC50 [2] of 3.3 nM and an IC50 [3] greater than 5000 nM. It also gave an IC50 [4] of 2.5 nM, an IC50 [5] of 1910 nM and an IC50 [6] of 8.1 nM. The IC50 [7] was 280 nM, the IC50 [8] was 23 nM and the IC50 [9] was 23 nM. For the same molecule, the GI50 [10] was 57 nM, the GI50 [11, 13] was 4.3 nM and the GI50 [11, 14] was 20 nM. It also gave a GI50 [11, 15] of 38 nM, a GI50 [11, 16] of 32 nM and a GI50 [11, 17] of 80 nM. The GI50 [11, 18] was 16 nM, the GI50 [11, 19] was 12 nM and the IC50 [12] was 463 nM.
